Experimental data as given in US9670172B2, “Heterocyclic compounds and methods of use” (Medivation Technologies, Inc., priority 2014, dated 2017).

Columns and labels:
[1] = system: SREBP2; assay: SREBP2 cleavage in HEPG2 cells (Western blot normalized to actin); assay type: cell-based; conditions: Homo sapiens; 5 μM, HepG2 cells; read-out: Average SREBP2 cleavage (% Inhibition, n = 3)
Experimental: Average SREBP2 cleavage in HEPG2 cells was measured in the presence of compounds disclosed in Table 1. HepG2 cells were seeded at 500,000 cells per well in 6-well plates in DMEM supplemented with 10% FBS. After 2 days, cells were treated with compounds (20 μM) for 1 day in DMEM without FBS. Western blots were normalized with respect to actin.
The results are shown in Table 3 as percent inhibition@20 μM, and in Table 4 as percent inhibition@5 μM.

[2] = HepG2 cell viability by MTS; assay type: cell-based; conditions: human; 5 μM, HepG2 cells, 3 days, DMEM without FBS, MTS; read-out: Average Viability (% Inhibition, n = 3)
Experimental: For viability measurements, HepG2 cells were seeded at 5,000 cells per well in 96-well plates in DMEM supplemented with 10% FBS. After 1 day in culture, cells were treated with compounds (20 μM & 5 μM) for 3 days in DMEM without FBS. Viability was measured by MTS. Treatment with compounds (20 μM & 5 μM) was carried out in medium without FBS, and viability was measured by MTS. […]

With O=S(=O)(Nc1ccc(-c2csc(-c3ccc4cc[nH]c4c3)n2)c(Cl)c1)C(F)(F)F [Compound 72, N-{3-chloro-4-[2-(1H-indol-6-yl)-1,3-thiazol-4-yl]phenyl}-1,1,1-trifluoromethanesulfonamide] the inhibition at 5 µM [1] was 61% and the cytotoxicity at 3 days, 5 μM [2] was 94%.

O=S(=O)(Nc1ccc(-c2csc(-c3ccc(C(F)(F)F)c(OCc4ccccc4)c3)n2)c(Cl)c1)C(F)(F)F [Compound 73, N-(4-{2-[3-(benzyloxy)-4-(trifluoromethyl)phenyl]-1,3-thiazol-4-yl}-3-chlorophenyl)-1,1,1-trifluoromethanesulfonamide] showed an inhibition at 5 µM [1] of 64% and a cytotoxicity at 3 days, 5 μM [2] of 99%.

For O=S(=O)(Nc1ccc(-c2csc(-c3ccccc3-c3ccccc3)n2)c(Cl)c1)C(F)(F)F [Compound 74, N-{3-chloro-4-[2-(2-phenylphenyl)-1,3-thiazol-4-yl]phenyl}-1,1,1-trifluoromethanesulfonamide], the inhibition at 5 µM [1] was 76% and the cytotoxicity at 3 days, 5 μM [2] was 97%.

O=S(=O)(Nc1ccc(-c2csc(-c3cncc4ccccc34)n2)c(Cl)c1)C(F)(F)F [Compound 75, N-{3-chloro-4-[2-(isoquinolin-4-yl)-1,3-thiazol-4-yl]phenyl}-1,1,1-trifluoromethanesulfonamide] showed an inhibition at 5 µM [1] of 55% and a cytotoxicity at 3 days, 5 μM [2] of 88%.

In the case of CN1CCN(c2cc(-c3nc(-c4ccc(NS(=O)(=O)C(F)(F)F)cc4Cl)cs3)ccn2)CC1 [Compound 76, N-(3-chloro-4-{2-[2-(4-methylpiperazin-1-yl)pyridin-4-yl]-1,3-thiazol-4-yl}phenyl)-1,1,1-trifluoromethanesulfonamide], the inhibition at 5 µM [1] is reported as 7% and the cytotoxicity at 3 days, 5 μM [2] is reported as 3%.

Cc1noc(C)c1-c1nc(-c2ccc(NS(=O)(=O)C(F)(F)F)cc2Cl)cs1 [Compound 77, N-{3-chloro-4-[2-(dimethyl-1,2-oxazol-4-yl)-1,3-thiazol-4-yl]phenyl}-1,1,1-trifluoromethanesulfonamide] gave an inhibition at 5 µM [1] of 56% and a cytotoxicity at 3 days, 5 μM [2] of 41%.

Cc1ccc(S(=O)(=O)Nc2cccc(-c3nc(-c4ccc(NS(=O)(=O)C(F)(F)F)cc4Cl)cs3)c2)cc1 [Compound 78, N-{3-[4-(2-chloro-4-trifluoromethanesulfonamidophenyl)-1,3-thiazol-2-yl]phenyl}-4-methylbenzene-1-sulfonamide] gave an inhibition at 5 µM [1] of 38% and a cytotoxicity at 3 days, 5 μM [2] of 87%.

For COc1ccc(-c2nc(-c3ccc(NS(=O)(=O)C(F)(F)F)cc3Cl)cs2)cc1OC [Compound 79, N-{3-chloro-4-[2-(3,4-dimethoxyphenyl)-1,3-thiazol-4-yl]phenyl}-1,1,1-trifluoromethanesulfonamide], the inhibition at 5 µM [1] was 65% and the cytotoxicity at 3 days, 5 μM [2] was 74%.

In the case of O=S(=O)(Nc1ccc(-c2csc(-c3ccc(F)cc3C(F)(F)F)n2)c(Cl)c1)C(F)(F)F [Compound 81, N-[3-chloro-4-[2-[4-fluoro-2-(trifluoromethyl)phenyl]thiazol-4-yl]phenyl]-1,1,1-trifluoro-methanesulfonamide], the inhibition at 5 µM [1] is reported as 44% and the cytotoxicity at 3 days, 5 μM [2] is reported as 88%.

O=S(=O)(Nc1ccc(-c2csc(-c3cccc(CO)c3)n2)c(Cl)c1)C(F)(F)F [Compound 83, N-(3-chloro-4-{2-[3-(hydroxymethyl)phenyl]-1,3-thiazol-4-yl}phenyl)-1,1,1-trifluoromethanesulfonamide] showed an inhibition at 5 µM [1] of 2% and a cytotoxicity at 3 days, 5 μM [2] of 0%.

With O=S(=O)(Nc1ccc(-c2csc(-c3ccccc3CO)n2)c(Cl)c1)C(F)(F)F [Compound 84, N-(3-chloro-4-{2-[2-(hydroxymethyl)phenyl]-1,3-thiazol-4-yl}phenyl)-1,1,1-trifluoromethanesulfonamide] the inhibition at 5 µM [1] was 20% and the cytotoxicity at 3 days, 5 μM [2] was 18%.

Cc1cnccc1-c1nc(-c2ccc(NS(=O)(=O)C(F)(F)F)cc2Cl)cs1 [Compound 86, N-{3-chloro-4-[2-(3-methylpyridin-4-yl)-1,3-thiazol-4-yl]phenyl}-1,1,1-trifluoromethanesulfonamide] showed an inhibition at 5 µM [1] of 54% and a cytotoxicity at 3 days, 5 μM [2] of 27%.
